How the values were obtained:
Assay type in all cases: cell-based, mouse
[1] = test system: NIH-3T3 cells; test: Western blot of NIH-3T3 cells (collagen I, GCN2, ATF4, PC); conditions: for rescue of TGFβ-induced collagen I depletion: metabolite, 48 hours
Description: (§1) PSCs were isolated from C57BL/6 mice by differential centrifugation as previously described^49 and their mesenchymal origin was validated by analyzing the expression of various mesenchymal and epithelial markers. MFBs were isolated from FVB/N mice by differential centrifugation as previously described^50. DB7 mouse breast cancer cells were obtained from Alexander Borowsky (University of California Davis Comprehensive Cancer Center, Sacramento, CA, USA) through an MTA to Ohio State University (OSU). KPC (Kras^LSL-G12D; Trp53^LSL-R172H; Pdx1-Cre) mouse PDAC cells were a gift from Scott Lowe (Memorial Sloan Kettering Cancer Center. (MSKCC)). All cells were cultured at 37° C. in 5% carbon dioxide (CO2) and 20% oxygen (O2) and were maintained in Dulbecco's Modified Eagles medium (DMEM) (25 mM D-glucose, 2 mM L-glutamine) supplemented with 10% fetal bovine serum (FBS) (Gemini), 100 units/ml penicillin and 100 μg/ml streptomycin. Primary PSC and MFB cells were kept in culture for no more than ten passages. Experiments with iCAFs and myCAFs were performed as previously described^29. In brief, qPSCs were generated by culturing PSCs in a dome of GFR Matrigel (Corning) in DMEM; iCAFs were generated by culturing PSCs in a dome of GFR Matrigel in DMEM conditioned by KPC cells for 48 h; myCAFs were generated by monolayer culture of PSCs. Differentiation was validated by analyzing the expression of iCAF/myCAF markers^29. For experiments with different glutamine concentrations, cells were seeded in regular DMEM and the medium was changed 5-6 hours later or the following day to glucose and glutamine-free DMEM supplemented with 10% dialyzed FBS (Gemini) and 20 mM D-glucose, 2 mM L-glutamine (100%), 0.4 mM L-glutamine (20%) or 0.2 mM L-glutamine (10%). All media were prepared by the Media Preparation Facility at MSKCC. Cells were verified as mycoplasma-free by the MycoAlert Mycoplasma Detection Kit (Lonza).
Lysates were generated by incubating cells or ground tumors in RIPA buffer (Millipore); […] of cleared lysate were analyzed by SDS-polyacrylamide gel electrophoresis (SDS-PAGE) as previously described^11. […] The following secondary antibodies were used: anti-rabbit horseradish peroxidase (HRP) (1:5,000; GE, NA934V), anti-mouse HRP (1:5,000; GE, NA931). Quantification of band intensities of collagen I relative to […] or vinculin in tumor allograft experiments was performed with Image Lab software v6.0 (Bio-Rad).

[2] = test system: NIH-3T3 cells; test: Growth experiments, NIH-3T3 cells; conditions: 10% Gln, TGFβ, 0.2, 1 or 5 mM metabolite, 3 days
Description: NIH-3T3 cells were obtained from ATCC (CRL-1658); 293 T cells were obtained from ATCC (CRL-3216). PSCs were isolated from C57BL/6 mice by differential centrifugation as previously described^49 and their mesenchymal origin was validated by analyzing the expression of various mesenchymal and epithelial markers. MFBs were isolated from FVB/N mice by differential centrifugation as previously described^50. DB7 mouse breast cancer cells were obtained from Alexander Borowsky (University of California Davis Comprehensive Cancer Center, Sacramento, CA, USA) through an MTA to Ohio State University (OSU). KPC (Kras^LSL-G12D; Trp53^LSL-R172H; Pdx1-Cre) mouse PDAC cells were a gift from Scott Lowe (Memorial Sloan Kettering Cancer Center. (MSKCC)). All cells were cultured at 37° C. in 5% carbon dioxide (CO2) and 20% oxygen (O2) and were maintained in Dulbecco's Modified Eagles medium (DMEM) (25 mM D-glucose, 2 mM L-glutamine) supplemented with 10% fetal bovine serum (FBS) (Gemini), 100 units/ml penicillin and 100 μg/ml streptomycin. Primary PSC and MFB cells were kept in culture for no more than ten passages. Experiments with iCAFs and myCAFs were performed as previously described^29. In brief, qPSCs were generated by culturing PSCs in a dome of GFR Matrigel (Corning) in DMEM; iCAFs were generated by culturing PSCs in a dome of GFR Matrigel in DMEM conditioned by KPC cells for 48 h; myCAFs were generated by monolayer culture of PSCs. Differentiation was validated by analyzing the expression of iCAF/myCAF markers^29. For experiments with different glutamine concentrations, cells were seeded in regular DMEM and the medium was changed 5-6 hours later or the following day to glucose and glutamine-free DMEM supplemented with 10% dialyzed FBS (Gemini) and 20 mM D-glucose, 2 mM L-glutamine (100%), 0.4 mM L-glutamine (20%) or 0.2 mM L-glutamine (10%). All media were prepared by the Media Preparation Facility at MSKCC. Cells were verified as mycoplasma-free by the MycoAlert Mycoplasma Detection Kit (Lonza).
A total of 0.2×10^5 cells/well were plated in 24-well culture plates and media was changed and treatments started 5-6 hours later. Cell numbers at the start of treatment (day 0 “d 0”) and 1, 2 and 3 days later were counted using the Multisizer 4e (Beckman) and normalized to the cell number at d 0. In co-culture assays, a fraction of the cell population was analyzed by flow cytometry for GFP expression, and the rest counted with the Multisizer 4e. The number of KPC-GFP cells was determined by multiplying the fraction of GFP+ cells with the total number of cells.

[3] = test system: pancreatic stellate cells (PSCs); test: Western blot of PSCs; conditions: TGFβ-treated PSCs, low glutamine, MSO (FIGS. 9A-9B)
Description: as §1, with “For experiments with different glutamine concentrations, cells were seeded in regular DMEM and the medium was changed 5-6 hours later or the following day to glucose and glutamine-free DMEM supplemented with 10% dialyzed FBS (Gemini) and 20 mM D-glucose, 2 mM L-glutamine (100%), 0.4 mM L-glutamine (20%) or 0.2 mM L-glutamine (10%). All media were prepared by the Media Preparation Facility at MSKCC. Cells were verified as mycoplasma-free by the MycoAlert Mycoplasma Detection Kit (Lonza).” left out
Lysates were generated by incubating cells or ground tumors in RIPA buffer (Millipore); […] of cleared lysate were analyzed by SDS-polyacrylamide gel electrophoresis (SDS-PAGE) as previously described^11. […] Quantification of band intensities of collagen I relative to […] or vinculin in tumor allograft experiments was performed with Image Lab software v6.0 (Bio-Rad).

[4] = test system: NIH-3T3 cells; test: Translation assay (OPP), NIH-3T3 cells; conditions: cells expressing human PC cDNA, 10% Gln, TGFβ, MSO 48 hours (FIG. 3K)
Experimental: Cells were treated as indicated and incubated with 20 μM O-propargyl-puromycin (OPP, Thermo Scientific) for the last 1 hour of the experiment. Cells were harvested by trypsinization and fixed with methanol at −20° C., followed by permeabilization with 0.5% Triton X-100 in phosphate-buffered saline (PBS).

[5] = test system: NIH-3T3 cells; test: tRNA charging assay, NIH-3T3 cells; conditions: 10% Gln, TGFβ 2 ng/mL, dm-αKG 5 mM with or without MSO 2 mM, 48 hours (FIG. 2A)
Experimental: Charging status of the indicated tRNA isodecoders was measured as previously described^20. In brief, Trizol-chloroform extracts were precipitated with 2.7× volumes of cold ethanol in the presence of 30 μg GlycoBlue (ThermoFisher) overnight. Samples were resuspended in 0.3 M acetate buffer (pH 4.5) with 10 mM ethylenediamine tetraacetic acid (EDTA) and precipitated overnight. Samples were resuspended in 10 mM acetate buffer with 1 mM EDTA. 2 μg of each RNA sample was treated with 10 mM of either sodium periodate (Sigma) (‘oxidized sample’) or sodium chloride (‘non-oxidized sample’) and incubated for 20 minutes at room temperature in the dark. Reactions were quenched with glucose for 15 minutes. Yeast Phe-tRNA (Sigma) was spiked into each sample, followed by ethanol precipitation. Samples were resuspended in 50 mM Tris buffer (pH 9) and incubated for 50 minutes at 37° C., quenched with acetate buffer and precipitated. […] Reverse transcription was performed with SuperScript IV reverse transcriptase (Thermo Scientific) according to the manufacturer's instructions, with a primer complementary to the DNA adaptor. cDNA samples were subjected to qPCR with tRNA isodecoder-specific primer pairs listed in Supplementary Table 1. Ct values obtained with primers specific for yeast Phe-tRNA were subtracted from Ct values obtained with isodecoder-specific primers. The charged fraction was calculated based on the relative difference between the delta-Ct value of a non-oxidized (representing total) and oxidized (representing charged) sample for each primer pair.

[6] = test system: NIH-3T3 cells; test: Collagen abundance in ECM derived from confluent NIH-3T3 cells; conditions: low glutamine and low glucose medium (FIGS. 12E and 12F)
Experimental: Culture plates were coated with 0.1% gelatin (Sigma) and treated with 1% glutaraldehyde (Sigma) and 1 M ethanolamine (Sigma). Confluent NIH-3T3 cells, MFBs or PSCs were grown for 6 days on coated plates in the presence of […] sodium ascorbate (Sigma) and treated as indicated, and the medium was replaced every other day. Plates were decellularized with 20 mM ammonium hydroxide/0.5% Triton-X 100 for 5 min on a rotating platform. Three times the volume of PBS was added, and ECM was equilibrated overnight at 4° C., followed by four additional PBS washes. For western blot, preheated sample buffer supplemented with 1 mM dithiothreitol (DTT) was added, ECM was scraped off and boiled, and proteins were separated by SDS-PAGE followed by immunoblotting. To measure collagen abundance, fibroblast-derived ECM was stained with the Picro Sirius Red Stain Kit (Abcam) according to the manufacturer's instructions. The stain was extracted with 0.1 M sodium hydroxide (NaOH) and optical density was measured at 550 nm using a microplate reader. Differences in cell number were controlled for by growing cells on separate plates under the same experimental conditions.

[7] = concentrations relevant in vivo (10 mM lactate, 0.1 mM pyruvate), low glutamine and low glucose (FIG. 6E)

CC(=O)C(=O)[O-].[Na+] [Pyruvate, sodium pyruvate]
collagen 1 levels [1, 7]: only lactate supplementation increased | potency to increase collagen 1 levels, relative ([1]; low glutamine and low glucose (FIG. 6E)): more potent than lactate

COC(=O)[C@@H]1CCCN1 [m-Pro, L-proline-methylester, reference compound]
rescue of TGFβ-induced collagen I depletion ([1]; 10% Gln): not | rescue of TGFβ-induced growth defect [2]: not

CS(=N)(=O)CC[C@H](N)C(=O)O (stereo partly drawn) [MSO, methionine sulfoximine]
restoration of collagen levels by dm-Glu and dm-αKG [3]: prevented | increase of protein translation by PC overexpression [4]: blocked | restoration of collagen I levels by dm-αKG ([1]; PC-deleted cells, 10% Gln, dm-αKG plus MSO, 48 hours (FIG. 4I)): unable to restore | restoration of collagen levels by dm-Glu and dm-αKG ([1]; TGFβ-treated NIH-3T3 cells, low glutamine, MSO (FIGS. 2C-2E)): prevented | collagen I synthesis ([1]; low Gln (10%), no TGFβ, MSO 48 hours (FIG. 2J)): unable to maintain | charging of glutamine-tRNA [5]: blocked

NC(=O)C[C@H](N)C(=O)O [Asparagine, asparagine]
rescue of TGFβ-induced collagen I depletion ([1]; 10% Gln): did not rescue | rescue of TGFβ-induced growth defect [2]: did not rescue

CC(O)C(=O)[O-].[Na+] (stereo not drawn) [lactate, sodium lactate]
collagen levels in the ECM produced by confluent fibroblasts [6]: increased | ability of extracellular lactate to rescue collagen I ([1]; Ctrl or PC sgRNA cells, low glutamine and low glucose (FIG. 6H)): PC-dependent | collagen 1 levels [1, 7]: increased | collagen 1 levels ([1]; low glutamine (10%) and low glucose (1 mM), 48 hours (FIG. 6E)): increased

O=C(O)[C@@H]1CCCN1 [proline]
rescue of TGFβ-induced collagen I depletion ([1]; 10% Gln): did not rescue | rescue of TGFβ-induced growth defect [2]: did not rescue

From US20260152533A1, “COMBINATION INHIBITORS FOR TREATING FIBROSIS” (Memorial Sloan-Kettering Cancer Center, priority 2021, published 2026)
